According to publication PMC6149949, “Synthesis and Evaluation of Thiochroman-4-One Derivatives as Potential Leishmanicidal Agents” (Molecules : A Journal of Synthetic Chemistry and Natural …, 2017):

Assays:
[1] = test system: intracellular amastigotes of Leishmania panamensis (MHOM/CO/87/UA140-EGFP strain); assay: In vitro antileishmanial activity on intracellular amastigotes (GFP, flow cytometry); assay type: cell-based; settings: for SI (index of selectivity, IS = LC50/EC50): LC50 U-937 / EC50 L. panamensis amastigotes; for EC50: Leishmania panamensis, U-937, 72 h, intracellular amastigotes of L. panamensis in U-937 cells, 72 h, mean ± SD
Protocol: Antileishmanial activity of compounds was determined according to the ability of the compound to reduce the infection by L. panamensis parasites. For this, the antileishmanial activity was tested on intracellular amastigotes of L. panamensis transfected with the green fluorescent protein gene (MHOM/CO/87/UA140-EGFP strain). Briefly, U-937 human cells at a density of 3 × 10^5 cells/mL in RPMI 1640 and 0.1 μg/mL of PMA (phorbol-12-myristate-13-acetate) were dispensed on 24-wells microplate and then infected with stationary phase growing L. panamensis promastigotes in 15:1 parasites per cell ratio. Plates were incubated at 34 °C and 5% CO2 for 3 h and then cells were washed twice with phosphate buffer solution (PBS) to eliminate not internalized parasites. Fresh RPMI-1640 was added into each well (1 mL) and plates were incubated again. After 24 h of infection, the RPMI-1640 medium was replaced by fresh culture medium containing each compound at four serial dilutions (50, 12.5, 3.125 and 0.78 μg/mL) and plates were then incubated at 37 °C and 5% CO2 during 72 h, then, cells were removed from the bottom plate with 100 μL of EDTA/Trypsin (250 mg) solution. The cells were centrifuged at 1100 rpm during 10 min at 4 °C, the supernatant was discarded and cells were washed with 1 mL of cold PBS and centrifuged at 1100 rpm for 10 min at 4 °C. Cells were washed two times employing PBS, as previously, and after the last wash, the supernatant was discarded and cells were suspended in 500 μL of PBS.
Cells were analyzed by flow cytometry employing a flow cytometer (cytomics FC 500MPL, Beckman Coulter. Pasadena, CA, USA) reading at 488 nm (exciting) and 525 nm (emitting) over an argon laser and counting 10,000 events. Infected cells were determined according the events for green fluorescence (parasites). All determinations for each compound and standard drug were carried out by triplicate, in two experiments. Infected cells exposed to control drug (amphotericin B) were used as control for antileishmanial activity (positive control) while infected cells incubated in absence of any compound or drug were used as control for infection (negative control). Nonspecific fluorescence was corrected by subtracting fluorescence of unstained cells. Determinations were done by triplicate in at least two independent experiments.
Antileishmanial activity was determined according reduction of percentage of fluorescent parasites determined according to the median fluorescence intensity (MFI), obtained for each experimental condition by cytometry. The parasite values for each concentration of compound were calculated by Equation (3), where the % of parasites in the control well, corresponds to 100% of parasites. % parasites = (MFI exposed parasites/MFI unexposed parasites) × 100(3)
Then, inhibition percentage was calculated with Equation (4):% inhibition of parasites = 100 − (% parasites)(4)
Results of antileishmanial activities were expressed as the median effective concentrations (EC50) measured by Probit method.

in vitro = settings: human
Protocol: Cytotoxicity of the compounds was evaluated over human monocytes (U-937 ATCC CRL-1593.2) in exponential growing phase and, adjusted at 1 × 10^5 cells/mL in RPMI-1640 enriched with 10% fetal bovine serum (FBS). One hundred microliters of cell suspension were dispensed in each well of a 96-wells microplate and then, 100 μL of each compound or standard drug (amphotericin B) at four serial dilution concentrations (200, 50, 12.5 and 3.125 μg/mL) were added dissolved in pbs with 0.5% DMSO. Cell exposed to compounds or standard drugs were incubated 72 h at 37 °C and 5% of CO2. Cytotoxic activity of each compound was determined according to the effect on the cell viability by the MTT microenzymatic method in which 3-(4,5-dimethylthiazol-2-yl)- 2,5-diphenyltetrazolium bromide is reduced to a purple product named formazan by mitochondrial enzyme succinate dehydrogenase. Thus, 10 μL/well of MTT solution (5 mg/mL) were added to each well of exposed and unexposed cells, and plates were incubated at 37 °C, 5% CO2 during 3 h. The reaction was stopped by adding 100 μL/well of isopropanol with 50% and 10% of SDS (sodium dodecyl sulfate). The concentration of formazan was determined spectrophotometrically at 570 nm (Varioskan Flash Multimode Reader, Thermo Scientific, Waltham, MA, USA) and intensity of color (absorbance) was registered as O.D. Cells exposed to control drug (amphotericin B) were used as control for toxicity (positive control) while cell incubated in absence of any compound or drug were used as control for viability (negative control). Non-specific absorbance was corrected by subtracting absorbance (O.D) of the blank. Determinations were done by triplicate in at least two independent experiments.
Cytotoxicity was determined according to viability and mortality percentages obtained for each experimental condition (synthetized compounds, amphotericin B and culture medium). Results were expressed as the mean lethal concentrations (LC50), concentration necessary to kill 50% of cells, calculated by the parametric method of linear regression that permits doses-response analysis (Probit analysis).
Initially, viability percentages were calculated by Equation (1), where the O.D of control well, corresponds to 100% of viability. % viability = (O.D exposed cells/O.D unexposed cells) × 100(1)
Then, the percentage of cell growth inhibition was calculated using Equation (2):% inhibition = 100 − (% Viability)(2)
The toxicity was defined according to LC50 values, using the follow scale: Toxic; LC50 < 100 μM; moderately toxic; LC50 > 100 μM and <200 μM and potentially nontoxic; LC50 > 200 μM.

SMILES | SI (index of selectivity, IS = LC50/EC50) [1] | EC50 [1] [µM] | CC50 at 72 h (in vitro) [µM]
O=C1CC(c2ccc(F)cc2)Sc2ccccc21 (stereo not drawn) [Compound 1l, 2-(4-Fluorophenyl)-thiochroman-4-one] | 0.78 | 93.6 ± 11 | 72.9 ± 9.87
CC1CC(=O)c2ccccc2S1(=O)=O (stereo not drawn) [Compound 3a, 2-Methylthiochroman-4-one 1,1-dioxide] |  | > 95.2 | > 825
O=c1ccsc2ccc([N+](=O)[O-])cc12 [Compound 2f, 6-Nitro-4H-thiochromen-4-one] | >26.26 | 36.8 ± 1.74 | > 965
O=c1cc(-c2ccc([N+](=O)[O-])cc2)sc2ccccc12 [Compound 2m, 2-(4-nitrophenyl)-4H-thiochromen-4-one] |  | > 70.6 | > 706
CC1CC(=O)c2cc(F)ccc2S1 (stereo not drawn) [Compound 1b, 6-Fluoro-2-methylthiochroman-4-one] | 1.37 |  | 579 ± 59.1
O=c1cc(-c2ccc(F)cc2)sc2ccccc12 [Compound 2l, 2-(4-Fluorophenyl)-4H-thiochromen-4-one] | <6.45 | > 78 | 503 ± 382
O=C1CCSc2c1ccc1c2C(=O)CCS1 [Compound 1d, 2,3,8,9-Tetrahydro-4H,10H-thiopyran[2,3-f]thiochromene-4,10-dione] | <3.49 | > 80 | 279 ± 36.4
